Assay results as given in the supplement of paper PMC10307832.

Tests used:
Test in all cases: relative viability (nuclei count vs DMSO), 5 days (fraction); higher = more cells survive
Ibrutinib + Trametinib = compound: C=CC(=O)N1CCC[C@@H](n2nc(-c3ccc(Oc4ccccc4)cc3)c3c(N)ncnc32)C1 [Ibrutinib] + CC(=O)Nc1cccc(-n2c(=O)n(C3CC3)c(=O)c3c(Nc4ccc(I)cc4F)n(C)c(=O)c(C)c32)c1 [Trametinib] (partner 0.02 µM)
Method in brief: (§1)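 Relative viability is defined as nuclei in treated wells over nuclei in vehicle wells. Duplicate plates were run and medians reported. Lung cancer cell lines in 1536-well plates were dosed by pin tool one day after seeding, with one drug or with a fixed anchor-drug dose plus five library-drug doses (not always all listed) in √10 steps, and nuclei were counted after 5 days.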

Ibrutinib + Foretinib = compound: C=CC(=O)N1CCC[C@@H](n2nc(-c3ccc(Oc4ccccc4)cc3)c3c(N)ncnc32)C1 [Ibrutinib] + COc1cc2c(Oc3ccc(NC(=O)C4(C(=O)Nc5ccc(F)cc5)CC4)cc3F)ccnc2cc1OCCCN1CCOCC1 [Foretinib] (partner 0.25 µM)
Method in brief: as §1

Ibrutinib + Tozasertib = compound: C=CC(=O)N1CCC[C@@H](n2nc(-c3ccc(Oc4ccccc4)cc3)c3c(N)ncnc32)C1 [Ibrutinib] + Cc1cc(Nc2cc(N3CCN(C)CC3)nc(Sc3ccc(NC(=O)C4CC4)cc3)n2)n[nH]1 [Tozasertib] (partner 0.1 µM)
Method in brief: as §1

Ibrutinib + Dasatinib = compound: C=CC(=O)N1CCC[C@@H](n2nc(-c3ccc(Oc4ccccc4)cc3)c3c(N)ncnc32)C1 [Ibrutinib] + Cc1nc(Nc2ncc(C(=O)Nc3c(C)cccc3Cl)s2)cc(N2CCN(CCO)CC2)n1 [Dasatinib] (partner 0.075 µM)
Method in brief: as §1

Cell Line | relative viability (Ibrutinib + Trametinib; first compound 0.005 µM) | relative viability (Ibrutinib + Trametinib; first compound 0.01581 µM) | relative viability (Ibrutinib + Trametinib; first compound 0.05 µM) | relative viability (Ibrutinib + Trametinib; first compound 0.1581 µM) | relative viability (Ibrutinib + Trametinib; first compound 0.5 µM) | relative viability (Ibrutinib + Foretinib; first compound 0.005 µM) | relative viability (Ibrutinib + Foretinib; first compound 0.01581 µM) | relative viability (Ibrutinib + Foretinib; first compound 0.05 µM) | relative viability (Ibrutinib + Foretinib; first compound 0.1581 µM) | relative viability (Ibrutinib + Foretinib; first compound 0.5 µM) | relative viability (Ibrutinib + Tozasertib; first compound 0.005 µM) | relative viability (Ibrutinib + Tozasertib; first compound 0.01581 µM) | relative viability (Ibrutinib + Tozasertib; first compound 0.05 µM) | relative viability (Ibrutinib + Tozasertib; first compound 0.1581 µM) | relative viability (Ibrutinib + Tozasertib; first compound 0.5 µM) | relative viability (Ibrutinib + Dasatinib; first compound 0.005 µM) | relative viability (Ibrutinib + Dasatinib; first compound 0.01581 µM) | relative viability (Ibrutinib + Dasatinib; first compound 0.05 µM) | relative viability (Ibrutinib + Dasatinib; first compound 0.1581 µM) | relative viability (Ibrutinib + Dasatinib; first compound 0.5 µM)
NCI-H3122 | 0.23 | 0.244 | 0.251 | 0.223 | 0.221 | 1.02 | 0.984 | 1.04 | 0.938 | 1.04 | 0.507 | 0.395 | 0.343 | 0.415 | 0.46 | 0.816 | 0.841 | 0.699 | 0.676 | 0.771
NCI-H661 | 0.509 | 0.478 | 0.436 | 0.532 | 0.433 | 1.06 | 0.839 | 0.842 | 0.984 | 0.616 | 0.353 | 0.372 | 0.384 | 0.348 | 0.389 | 0.626 | 0.581 | 0.417 | 0.842 | 0.425
NCI-H2342 | 0.801 | 0.873 | 0.659 | 0.773 | 0.676 | 0.9 | 1 | 0.812 | 1.12 | 0.801 | 0.499 | 0.493 | 0.577 | 0.53 | 0.396 | 0.314 | 0.315 | 0.294 | 0.279 | 0.276
NCI-H838 | 0.342 | 0.484 | 0.528 | 0.523 | 0.499 | 0.929 | 0.985 | 1.07 | 1.01 | 1.02 | 0.261 | 0.261 | 0.285 | 0.27 | 0.277 | 0.327 | 0.286 | 0.297 | 0.251 | 0.289
NCI-H441 | 0.423 | 0.441 | 0.524 | 0.344 | 0.342 | 0.898 | 1.11 | 1.1 | 1.08 | 0.895 | 0.596 | 0.64 | 0.801 | 0.73 | 0.809 | 0.638 | 0.649 | 0.729 | 0.571 | 0.55
NCI-H2126 | 0.5 | 0.474 | 0.522 | 0.559 | 0.466 |  | 1.03 | 1.24 | 1.25 | 1.02 | 0.701 | 0.811 | 0.792 | 0.818 | 0.755 | 0.506 | 0.57 | 0.546 | 0.574 | 0.623
NCI-H1651 | 0.858 | 0.807 | 0.765 | 0.776 | 0.773 | 0.928 | 0.931 | 0.896 | 0.882 | 0.615 | 0.558 | 0.7 | 0.757 | 0.668 | 0.944 | 0.446 | 0.386 | 0.368 | 0.352 | 0.428
NCI-H1734 | 0.636 | 0.67 | 0.677 | 0.596 | 0.618 | 0.827 | 0.822 | 0.965 | 0.895 | 0.718 | 0.272 | 0.245 | 0.299 | 0.257 | 0.257 | 0.36 | 0.473 | 0.506 | 0.521 | 0.454
NCI-H1915 | 0.324 | 0.295 | 0.28 | 0.292 | 0.283 | 1.12 | 1.07 | 1.11 | 1.15 | 1.09 | 0.498 | 0.439 | 0.447 | 0.485 | 0.428 | 0.287 | 0.292 | 0.288 | 0.319 | 0.369
NCI-H2023 | 0.448 | 0.455 | 0.491 | 0.485 | 0.462 | 0.747 | 0.721 | 0.562 | 0.975 | 0.459 | 0.388 | 0.303 | 0.324 | 0.394 | 0.324 | 0.578 | 0.546 | 0.532 | 0.55 | 0.516
NCI-H1755 | 0.761 | 0.796 | 0.796 | 0.793 | 0.746 | 0.929 | 0.925 | 0.951 | 1.02 | 0.855 | 0.628 | 0.574 | 0.695 | 0.613 | 0.528 | 0.478 | 0.365 | 0.444 | 0.484 | 0.383
EPLC-272H |  | 0.293 | 0.311 | 0.277 | 0.243 | 0.675 | 0.474 | 0.409 | 0.584 | 0.434 | 0.171 | 0.171 | 0.25 | 0.126 | 0.193 | 0.274 | 0.294 | 0.284 | 0.279 | 0.188
NCI-H1793 | 0.485 | 0.423 | 0.436 | 0.419 | 0.401 |  | 0.566 | 0.552 | 0.545 | 0.416 |  | 0.288 | 0.254 | 0.462 | 0.208 |  | 0.371 | 0.358 | 0.389 | 0.303
NCI-H358 | 0.102 | 0.194 |  | 0.138 | 0.116 | 0.294 |  | 0.35 | 0.551 | 0.291 | 0.103 |  | 0.0879 | 0.12 | 0.0917 | 0.149 |  | 0.136 | 0.152 | 0.0966
HCC-827 | 0.49 | 0.489 | 0.416 | 0.509 | 0.196 | 1.04 | 0.993 | 0.813 | 1.03 | 0.165 | 0.396 | 0.39 | 0.513 | 0.437 | 0.224 | 0.358 | 0.277 | 0.206 | 0.262 | 0.143
NCI-H2085 | 0.499 | 0.548 | 0.566 | 0.661 | 0.463 | 0.916 | 0.628 | 0.941 | 1.1 | 0.625 | 0.853 | 0.628 | 0.623 | 0.855 | 0.697 | 0.26 | 0.254 | 0.219 | 0.202 | 0.216
